ChEMBL document CHEMBL1268928, “Design and synthesis of novel pyrimidine hydroxamic acid inhibitors of histone deacetylases” (Bioorg Med Chem Lett, 2010)

How the values were obtained:
HuT78 = assay: cells; type: functional; settings: Homo sapiens, HuT78, 72 h
Description: Growth inhibition of human HUT78 cells after 72 hrs by SRB assay

HCT-116 = assay: cells; type: functional; settings: Homo sapiens, HCT-116, 72 h
Description: Growth inhibition of human HCT116 cells after 72 hrs by SRB assay

HeLa [1] = assay: cells; type: functional; settings: Homo sapiens, 72 h
Description: Growth inhibition of human HeLa cells after 72 hrs by SRB assay

U-937 = assay: cells; type: functional; settings: Homo sapiens, U-937, 72 h
Description: Growth inhibition of human U937 cells after 72 hrs by SRB assay

Histone deacetylase = assay: Inhibition of HDAC in human HeLa cell nuclear extracts by fluorimetric assay; type: protein assay
HeLa [2] = assay: Growth inhibition of human HeLa cells at 10 uM after 72 hrs by SRB assay; type: functional; settings: read-out: GI

Row | Structure (SMILES) | GI50 (HCT-116) [nM] | GI50 (HeLa [1]) [nM] | GI50 (U-937) [nM] | IC50 (Histone deacetylase) [nM] | GI50 (HuT78) [nM] | inhibition of growth at 10 µM (HeLa [2]) [%]
1 | O=C(NO)c1ccc(N2C[C@H]3CN(Cc4ccc5ccccc5c4)C[C@H]3C2)nc1 | 700 | 1260 | 450 | 45 | 340 | –
2 | O=C(NO)c1cnc(N2C[C@@H]3CN(S(=O)(=O)c4cc(C(F)(F)F)cc(C(F)(F)F)c4)C[C@@H]3C2)nc1 | 1700 | – | 1250 | 433 | 700 | 42

The next molecules have a lower GI50 (HCT-116) than those just listed; values first:

Row | GI50 (HCT-116) [nM] | GI50 (HeLa [1]) [nM] | GI50 (U-937) [nM] | IC50 (Histone deacetylase) [nM] | Structure (SMILES) | GI50 (HuT78) [nM] | inhibition of growth at 10 µM (HeLa [2]) [%]
3 | 490 | 690 | 230 | 42 | O=C(NO)c1cnc(N2C[C@H]3CN(Cc4ccc(Cl)cc4)C[C@H]3C2)nc1 | 190 | –
4 | 590 | 210 | 390 | 12 | O=C(NO)c1cnc(N2C[C@H]3CN(C(=O)c4ccc5ccccc5c4)C[C@H]3C2)nc1 | 200 | –
5 | 530 | 940 | 980 | 123 | O=C(NO)c1cnc(N2C[C@@H]3CN(S(=O)(=O)c4ccc(OC(F)(F)F)cc4)C[C@@H]3C2)nc1 | 500 | –
